Experimental data taken from patent US20170226507A1, “COORDINATE CONTROL OF PATHOGENIC SIGNALING BY THE MIR-130/301 FAMILY IN PULMONARY HYPERTENSION AND FIBROPROLIFERATIVE DISEASES” (The Brigham and Women's Hospital, Inc., priority 2014, published 2017).
“Also recorded” adds a separate entry of the source.

Key:
PAAFs [1] = assay: PAAFs in soft or stiff matrix: fibrotic gene expression, immunoblot, collagen secretion; format: cell-based, human
Method: Cell Culture and Reagents: Primary human pulmonary arterial adventitial fibroblast cells (PAAFs) were purchased and propagated in FGM cell culture media (Lonza). Experiments were performed at passages 3 to 6. Primary human pulmonary fibroblast cells (PFs) were purchased and propagated in FGM cell culture media (Lonza). Primary human pulmonary arterial endothelial cells (PAECs) were purchased and propagated in EGM-2 cell culture media (Lonza). Experiments were performed at passages 3 to 6. Primary human pulmonary arterial smooth muscle cells (PASMCs) were purchased and propagated in SmGM-2 cell culture media (Lonza). Experiments were performed at passages 3 to 9. HEK293T cells (American Type Culture Collection) were used and cultivated in DMEM containing 10% fetal bovine serum (FBS). Cells were propagated in coated collagen plastic (50 ug/mL) at 37° C. in a humidified 5% CO2 atmosphere. Collagen-coated hydrogel were purchased.
3D cell culture: Protocol was adapted from previously published protocol (Aragona M et al, 2013 Cell). Cells were embedded in a mixture of Growth Factor Reduced Matrigel (BD Biosciences) and Collagen-I (BD Biosciencres). Collagen-I solution was neutralized on ice with 0.1M NaOH in PBS and adjusted with 0.1N HCl to bring the pH of the solution to 7.5. The Collagen-I solution was then mixed on ice with Matrigel to obtain a final concentration of 1.2 mg/ml (soft matrices) or 3 mg/ml (stiff matrices). Cells were trypsinized, counted, resuspended in growth medium; then, 1 volume of cells was mixed with 1 volume of the ECM mix. 6-well plated were precoated with 1 ml of cellfree 50% medium/50% ECM, and left in the incubator until gelled; then, cells were seeded in drop on top of the pregelled ECM. After gelling, wells were supplemented with normal growth medium, which was changed every 2 days during the experiments.
Oligonucleotides and Transfection: Pre-miRNA oligonucleotides (pre-miR-130a, negative control pre-miR-NC1 and premiR-NC2) and custom designed tiny LNA oligonucleotides (tiny-130: 5′-[…]-3′ (SEQ ID NO: 52), and tiny-NC 5′-[…]-3′ (SEQ ID NO: 54)) were purchased from Life Technologies/Ambion and Exiqon, respectively. siRNAs for PPARγ and OCT4/POU5F1 were purchased from Santa Cruz Biotechnology. siRNA for TIMP2 was purchased from Life Technologies. On Target Plus siRNAs for YAP1, TAZ (WWTR1), LRP8 and scrambled control were purchased from ThermoScientific/Dhermacon. PAAF, PF, PAEC and PASMC were plated in collagen-coated dish (50 ug/mL) and transfected 24 h later at 70-80% confluence using pre-miRNA (5 nM), tiny-LNA (20 nM) or siRNA (25 nM) and Lipofectamine 2000 reagent (Life Technologies), according to the manufacturers' instructions. 8 hours after transfection cells were trypsinized and re-plated in the different hydrogel/3D-matrix.
Primary human pulmonary arterial adventitial fibroblast cells (PAAFs) were purchased (ScienCell Research Laboratories) and grown in FGM cell culture media (Lonza). Experiments were performed at passages 3 to 6. Primary human pulmonary arterial endothelial cells (PAECs) were grown in EGM-2 cell culture media (Lonza), and experiments were performed at passages 3 to 6. Primary human pulmonary arterial smooth muscle cells (PASMCs) were cultured in SmGM-2 cell culture media (Lonza), and experiments were performed at passages 3 to 9. HEK293T cells (American Type Culture Collection) were cultivated in DMEM containing 10% fetal bovine serum (FBS). […]

PAAFs [2] = assay: ECM remodeling experiment (naïve PAAFs plated on remodeled ECM); format: cell-based, human
Method: After the different treatment cells were fixed with PBS/PFA 4% for 10 min and permeabilized with PBS/Triton 100×0.1% for 10 min. Then cells were incubated with anti-YAP1 (#4912; 1/100; Cell signaling) at 4° C. overnight. Secondary antibodies coupled with Alexa-594 (Life Technologies) were used at 1:500. Nuclei were counterstained with DAPI (Sigma).
Following treatment, PAAFs were plated atop soft matrices (see below) in normal growth medium supplemented with 0.5% FBS. After three days, 10 ug/mL of puromycin was added to the growth medium for 48 hours to detach the cells from the matrix. Matrices were washed 3 times (PBS). Naïve PAAFs were then plated on top of these matrices supplemented with normal growth medium 0.5% FBS or harvested for assessment of collagen crosslinking (Picrosirius Red stain). Sixteen hours later, cells were harvested for immunofluorescence experiments or RNA extraction.
(§1) Picrosirius Red stain was achieved through the use of 5 μm paraffin sections stained with 0.1% Picrosirius Red (Direct Red80, Sigma-Aldrich) and counterstained with Weigert's hematoxylin to reveal fibrillar collagen. The sections were then serially imaged using with an analyzer and polarizer oriented parallel and orthogonal to each other. Microscope conditions (lamp brightness, condenser opening, objective, zoom, exposure time, and gain parameters) were constant throughout the imaging of all samples. A minimal threshold was set on appropriate control sections for each experiment in which only the light passing through the orthogonally-oriented polarizers representing fibrous structures (i.e., excluding residual light from the black background) was included. The threshold was maintained for all images across all conditions within each experiment. The area of the transferred regions that was covered by the thresholded light was calculated and at least 10 sections/vessel per condition were averaged together (Image J software).

[3] = tested on: hypoxia-induced PH in mice; assay: Hypoxia-induced PH in mice: BAPN (prevention, rescue) or GW3965 (prevention); format: in vivo, mouse
Description: Finally, we wanted to determine if ApoE activity and/or LOX-dependent vascular stiffening were essential for ECM stiffening and PH development by miR-130/301. To assess the importance of ApoE activity, we attempted to prevent PH in mice via treatment with daily dietary ingestion of the liver-X nuclear hormone receptor (LXR) agonist GW3965, a known pharmacologic inducer of ApoE (Pencheva et al., 2014), simultaneously with hypoxia (FIGS. 62A-62H and 68A-H). Alternatively, experiments were designed to either prevent or reverse hypoxia-induced PH in mice via serial treatment with a pharmacologic inhibitor of LOX (Levental et al., 2009), β-aminopropionitrile BAPN, administered either simultaneously with hypoxia exposure (“prevention”) or after disease development (“reversal”) (FIGS. 62A-62H and 68A-H). In all cases of GW3965 or BAPN treatment, collagen crosslinking (FIG. 62D, 62H, FIG. 68) was inhibited, leading to decreased indices of PH, as reflected by RVSP (FIG. 62A, 62E), right ventricular remodeling (RV/LV+S ratio; FIG. 62B, 62F) and pulmonary arteriolar muscularization (FIG. 62C, 62G). GW3965 or BAPN treatment also reversed Pparγ and Lrp8 down-regulation (FIGS. 68A-68H) as well as reduced YAP nuclear localization (FIG. 62D, 62H) and YAP activation, as reflected by decreased Ctgf (FIGS. 68A-68H). Thus, considering the convergent data regarding pharmacologic manipulation of miR-130/301, APOE, and LOX, we can conclude that the YAP-TAZ-miR-130/301 circuit and its downstream network of targets act as master regulators of ECM remodeling in PH and represent a new set of targets for tailored molecular therapy in this disease.
To determine the effects of the LXR agonist GW3965 (Sigma-Aldrich) and consequent APOE induction on PH development, as previously described (Pencheva et al., 2014), mice were exposed to normobaric hypoxia and simultaneously assigned to control chow or chow supplemented with GW3965 (Research Diets, Inc.) at doses of 100 mg of drug per kilogram of mouse per day (based on average daily intake of […] of chow).
as §1
This protocol was adapted from a previously published protocol (Hu et al.). Mouse lung was weighed, minced, and incubated in 0.5 M acetic acid at 4° C. After overnight digestion, the acetic acid-soluble and insoluble fractions were isolated by centrifugation. The soluble fraction was stored at −80° C., while the insoluble fraction was digested by overnight incubation in 6M hydrochloric acid at 85° C. Concentrations of soluble and insoluble (gelatinous) collagen fractions were determined using a Sircol Soluble Collagen Assay Kit (Biocolor) with a colorimetric reaction (measured at 550 nm) and a provided collagen reference standard curve.

[4] = tested on: pulmonary tissue and pulmonary vasculature of mice; assay: Forced expression of miR-130a in mouse lung (SU5416, intrapharyngeal mimic) with or without rosiglitazone or BAPN
Method: In the presence of SU5416 (days of injection are highlighted in red) but in the absence of hypoxia, intrapharyngeal injection of wildtype mice was performed serially 4 times at 1 week intervals with 1 nmol of miR-NC or 1 nmol of miR-130a (days of administration are in black). During this period, mice were treated daily by oral gavage with 20 mg/kg of rosiglitazone or vehicle. At day 25, echocardiography and right heart catheterization was performed followed by euthanasia and blood/tissue sampling.
Eight-week-old mice (C57Bl6) were injected with SU5416 weekly (20 mg/kg/dose; Sigma-Aldrich), accompanied by 4 intrapharyngeal injections (once by week) of 1 nmol of miR-control (pre-miR-NC) or miR-130a (pre-miR-130a) mixed in 100 uL PBS solution containing 5% Lipofectamine 2000 (Life Technologies). Three days after the last injection, right heart catheterization was performed as previously described (9), followed by harvest of lung tissue for RNA extraction or paraffin embedding, as described above. Rosiglitazone (Cayman Chemicals) was dissolved in 0.25% carboxymethyl cellulose medium viscosity aqueous solution. This rosiglitazone solution versus vehicle control was delivered daily (20 mg/kg/day) by oral gavage to mice for 3 weeks.
After physiological measurements, blood was extracted by cardiac puncture for future analyses (hematocrit, plasma extraction). By direct right ventricular puncture, the pulmonary vessels were gently flushed with 1 cc of saline to remove the majority of blood cells, prior to harvesting cardiopulmonary tissue. The heart was removed, followed by dissection and weighing of the right ventricle (RV) and of the left ventricle+septum (LV+S). Organs were then harvested for histological preparation or flash frozen in liquid N2 for subsequent homogenization and extraction of RNA and/or protein. To further process lung tissue specifically, prior to excision, lungs were flushed with PBS at constant low pressure (˜10 mmHg) via right ventricular cannulation, followed by tracheal inflation of the left lung with 10% neutral-buffered formalin (Sigma-Aldrich) at a pressure of −20 cm H2O. After excision and 16 hours of fixation in 10% neutral-buffered formalin at 25° C., lung tissues were paraffin-embedded via an ethanol-xylene dehydration series, before being sliced into 5 μm sections (Hypercenter XP System and Embedding Center, Shandon).
Lung sections (5 μm) were deparaffinized and high temperature antigen retrieval was performed followed by blocking in TBS/BSA 5%, 10% goat serum and exposure to primary antibody and biotinylated secondary antibody (Vectastain ABC kit, Vector Labs). In most cases, color development was achieved by adding streptavidin-biotinylated alkaline phosphatase complex (Vector Labs) followed by Vector Red alkaline phosphatase substrate solution (Vector Labs). Levamisole was added to block endogenous alkaline phosphatase activity (Vector Labs). Pictures were obtained using an Olympus Bx51 microscope (40× objective). Small pulmonary vessels (<100 μm diameter) present in a given tissue section (>10 vessels per section) that were not associated with bronchial airways were selected for analysis (N>5 animals per group). Intensity of staining was quantified using ImageJ software (NIH). Degree of pulmonary arteriolar muscularization was assessed in paraffin-embedded lung sections stained for α-SMA by calculation of the proportion of fully and partially muscularized peripheral (<100 μm diameter) pulmonary arterioles to total peripheral pulmonary arterioles, as previously described (29). Medial thickness was also measured in α-SMA stained vessels (<100 μm diameter) using ImageJ software (NIH) and expressed as arbitrary units. All measurements were performed blinded to condition.

[5] = rosiglitazone or BAPN on top of miR-130a

Compound	collagen content of conditioned media (collagen secretion) (PAAFs [1]; PAAFs)	miR-130a-induced up-regulation of collagen, CTGF, and LOX (PAAFs [1]; PAAFs exposed to exogenous ApoE)	collagen crosslinking of remodeled ECM (PAAFs [2]; Picrosirius Red)	collagen, LOX, CTGF, and POU5F1/OCT4 in naïve cells plated on remodeled ECM (PAAFs [2]; RT-qPCR)	miR-130/301 in naïve cells plated on remodeled ECM (PAAFs [2]; RT-qPCR)	perivascular collagen crosslinking ([3]; Picrosirius Red)	Ctgf, collagen isoforms, and Lox in lung ([3]; RT-qPCR)	whole lung collagen content and crosslinked collagen ([3]; Sircol assay)	arteriolar muscularization ([3]; hypoxic mice)	right ventricular hypertrophy (Fulton index, RV/LV+S) ([3]; hypoxic mice)	RVSP ([3]; hypoxic mice, BAPN prevention and rescue, GW3965 100 mg/kg/day in chow)	hypoxia mediated decreases of Lrp8 and Pparγ ([3]; in situ staining)	hypoxia-mediated increases of α-SMA and YAP ([3]; in situ staining)	miR-130a-mediated changes in collagen, α-SMA, YAP staining and perivascular collagen crosslinking ([4]; BAPN 30 mg/kg/day, Picrosirius Red and in situ staining)	YAP activation and downstream PH manifestations ([4]; BAPN in miR-130-exposed mice)	Ctgf, collagen isoforms and Lox expression in lung ([4]; RT-qPCR, BAPN on top of miR-130a)	right ventricular systolic pressure (RVSP) ([4]; SU5416 mice, miR-130a 1 nmol x4, rosiglitazone 20 mg/kg daily oral or BAPN 30 mg/kg/day on top of miR-130a)	total (soluble) collagen and crosslinked (insoluble) collagen in whole lung ([4]; Sircol / biochemical analysis, BAPN on top of miR-130a)	percentage of muscularized small pulmonary arterioles [4, 5]	right ventricular remodeling, RV/(LV+S) mass ratio [4, 5]
ApoE: Recombinant ApoE (PeproTech) used at 5 μM in growth media	disrupted; also recorded: reversed	resistant	reversed	negligible alterations	reversed	–	–	–	–	–	–	–	–	–	–	–	–	–	–	–
N#CCCN [BAPN, β-aminopropionitrile]	–	–	–	–	–	inhibited; also recorded: decreased	blunted	normalized by BAPN rescue treatment, and kept at baseline by preventative BAPN treatment; also recorded: nearly normalized by BAPN rescue treatment and largely maintained at baseline by BAPN prevention treatment	decreased; also recorded: both prevented and reversed	decreased; also recorded: both prevented and reversed	decreased; also recorded: both prevented and reversed	reversed; also recorded: either prevented or rescued	reduced; also recorded: blunted	decrease; also recorded: blunted	reversed	temper; also recorded: blunted	lessened	reversed; also recorded: decreased	lessened	lessened
